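Following 48 hours of exposure in 96-well plates, responses at five concentrations were used to interpolate endpoints linearly. Abbreviation: GI50, concentration required for 50% inhibition of growth.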 The source made the active and inactive calls. No stated cut-off is given here; in the data, active = GI50 up to about 1.1 µM and inactive = higher.
Assays:
Experiment in all cases: NCI-60 cell line screen, 48 h
786-0 = tested on: 786-0
ACHN = tested on: ACHN
CAKI-1 = tested on: CAKI-1
DU-145 = tested on: DU-145
HOP-92 = tested on: HOP-92
Hs-578T = tested on: Hs-578T
IGROV-1 = tested on: IGROV-1
KM12 = tested on: KM12
MDA-MB-435 = tested on: MDA-MB-435
OVCAR-4 = tested on: OVCAR-4
OVCAR-5 = tested on: OVCAR-5
OVCAR-8 = tested on: OVCAR-8
RPMI-8226 = tested on: RPMI-8226
RXF 393 = tested on: RXF 393
SF-539 = tested on: SF-539
SK-MEL-28 = tested on: SK-MEL-28
SK-OV-3 = tested on: SK-OV-3
SNB-19 = tested on: SNB-19
SR = tested on: SR
T47D = tested on: T47D

O=C(Nc1ccc(Nc2ccc3c(c2)C(=O)c2ccccc2C3=O)c2c1C(=O)c1ccccc1C2=O)c1ccccc1
GI50 (786-0): 38.8 µM (inactive) | GI50 (ACHN): > 100 µM (inactive) | GI50 (CAKI-1): > 100 µM (inactive) | GI50 (DU-145): 80.2 µM (inactive) | GI50 (HOP-92): > 59.7 µM (inactive) | GI50 (Hs-578T): 32.4 µM (inactive) | GI50 (IGROV-1): 32.3 µM (inactive) | GI50 (KM12): 34.2 µM (inactive) | GI50 (MDA-MB-435): 3.53 µM (inactive) | GI50 (OVCAR-4): > 100 µM (inactive) | GI50 (OVCAR-5): > 100 µM (inactive) | GI50 (OVCAR-8): > 86.5 µM (inactive) | GI50 (RPMI-8226): 38.7 µM (inactive) | GI50 (RXF 393): 20.3 µM (inactive) | GI50 (SF-539): > 23.7 µM (inactive) | GI50 (SK-MEL-28): > 100 µM (inactive) | GI50 (SK-OV-3): 67.9 µM (inactive) | GI50 (SNB-19): > 80.5 µM (inactive) | GI50 (SR): 0.989 µM (active) | GI50 (T47D): 42.1 µM (inactive)

Cc1cn(CCCCCOC(=O)NC(CCCNC(N)=O)C(=O)O)c(=O)[nH]c1=O (centres undefined)
GI50 (786-0): > 100 µM (inactive) | GI50 (ACHN): > 100 µM (inactive) | GI50 (CAKI-1): > 100 µM (inactive) | GI50 (DU-145): > 100 µM (inactive) | GI50 (HOP-92): > 100 µM (inactive) | GI50 (Hs-578T): > 100 µM (inactive) | GI50 (IGROV-1): 65.3 µM (inactive) | GI50 (KM12): > 100 µM (inactive) | GI50 (MDA-MB-435): > 100 µM (inactive) | GI50 (OVCAR-4): > 100 µM (inactive) | GI50 (OVCAR-5): > 100 µM (inactive) | GI50 (OVCAR-8): > 100 µM (inactive) | GI50 (RPMI-8226): > 100 µM (inactive) | GI50 (RXF 393): > 100 µM (inactive) | GI50 (SF-539): > 100 µM (inactive) | GI50 (SK-MEL-28): > 100 µM (inactive) | GI50 (SK-OV-3): > 100 µM (inactive) | GI50 (SNB-19): > 100 µM (inactive) | GI50 (SR): > 100 µM (inactive) | GI50 (T47D): > 100 µM (inactive)

Nc1nn2c(=O)c3ccccc3nc2s1
GI50 (786-0): 42.5 µM (inactive) | GI50 (ACHN): > 100 µM (inactive) | GI50 (CAKI-1): > 100 µM (inactive) | GI50 (DU-145): > 100 µM (inactive) | GI50 (HOP-92): > 100 µM (inactive) | GI50 (Hs-578T): > 100 µM (inactive) | GI50 (IGROV-1): 65.5 µM (inactive) | GI50 (KM12): > 100 µM (inactive) | GI50 (MDA-MB-435): > 100 µM (inactive) | GI50 (OVCAR-4): > 100 µM (inactive) | GI50 (OVCAR-5): > 100 µM (inactive) | GI50 (OVCAR-8): 30 µM (inactive) | GI50 (RPMI-8226): 32.4 µM (inactive) | GI50 (RXF 393): > 100 µM (inactive) | GI50 (SF-539): 43.9 µM (inactive) | GI50 (SK-MEL-28): > 100 µM (inactive) | GI50 (SK-OV-3): > 100 µM (inactive) | GI50 (SNB-19): > 100 µM (inactive) | GI50 (SR): 20.5 µM (inactive) | GI50 (T47D): 87.3 µM (inactive)

CCOC(=O)/C=C/CCC(C)(C)COC(C)=O
GI50 (786-0): > 10 µM (inactive) | GI50 (ACHN): > 10 µM (inactive) | GI50 (CAKI-1): > 10 µM (inactive) | GI50 (DU-145): > 10 µM (inactive) | GI50 (HOP-92): > 10 µM (inactive) | GI50 (Hs-578T): > 10 µM (inactive) | GI50 (IGROV-1): > 10 µM (inactive) | GI50 (KM12): > 10 µM (inactive) | GI50 (MDA-MB-435): > 10 µM (inactive) | GI50 (OVCAR-4): > 10 µM (inactive) | GI50 (OVCAR-5): > 10 µM (inactive) | GI50 (OVCAR-8): > 10 µM (inactive) | GI50 (RPMI-8226): > 10 µM (inactive) | GI50 (RXF 393): > 10 µM (inactive) | GI50 (SF-539): > 10 µM (inactive) | GI50 (SK-MEL-28): > 10 µM (inactive) | GI50 (SK-OV-3): > 10 µM (inactive) | GI50 (SNB-19): > 10 µM (inactive) | GI50 (SR): > 10 µM (inactive) | GI50 (T47D): > 10 µM (inactive)

Cn1c(=O)c2ccccc2[n+]2c(-c3cccc([N+](=O)[O-])c3)csc12
GI50 (786-0): 54.3 µM (inactive) | GI50 (ACHN): > 100 µM (inactive) | GI50 (CAKI-1): 73.5 µM (inactive) | GI50 (DU-145): > 100 µM (inactive) | GI50 (HOP-92): > 100 µM (inactive) | GI50 (Hs-578T): 18.7 µM (inactive) | GI50 (IGROV-1): 68.1 µM (inactive) | GI50 (KM12): 58.2 µM (inactive) | GI50 (MDA-MB-435): 63.7 µM (inactive) | GI50 (OVCAR-4): > 100 µM (inactive) | GI50 (OVCAR-5): > 100 µM (inactive) | GI50 (OVCAR-8): 18 µM (inactive) | GI50 (RPMI-8226): 28.1 µM (inactive) | GI50 (RXF 393): 43.4 µM (inactive) | GI50 (SF-539): 59.6 µM (inactive) | GI50 (SK-MEL-28): > 100 µM (inactive) | GI50 (SK-OV-3): 73.6 µM (inactive) | GI50 (SNB-19): > 100 µM (inactive) | GI50 (SR): 18.6 µM (inactive) | GI50 (T47D): > 100 µM (inactive)

CN(C)CCNS(=O)(=O)N(C)C
GI50 (786-0): > 100 µM (inactive) | GI50 (ACHN): > 100 µM (inactive) | GI50 (CAKI-1): > 100 µM (inactive) | GI50 (DU-145): > 100 µM (inactive) | GI50 (HOP-92): > 100 µM (inactive) | GI50 (Hs-578T): > 100 µM (inactive) | GI50 (IGROV-1): > 100 µM (inactive) | GI50 (KM12): > 100 µM (inactive) | GI50 (MDA-MB-435): > 100 µM (inactive) | GI50 (OVCAR-4): > 100 µM (inactive) | GI50 (OVCAR-5): > 100 µM (inactive) | GI50 (OVCAR-8): > 100 µM (inactive) | GI50 (RPMI-8226): > 100 µM (inactive) | GI50 (RXF 393): > 100 µM (inactive) | GI50 (SF-539): > 100 µM (inactive) | GI50 (SK-MEL-28): > 100 µM (inactive) | GI50 (SK-OV-3): > 100 µM (inactive) | GI50 (SNB-19): > 100 µM (inactive) | GI50 (SR): > 100 µM (inactive) | GI50 (T47D): > 100 µM (inactive)

CCN(CC)CCNc1ccc([N+](=O)[O-])c2nc3ccc(OC)cc3c(N)c12
GI50 (786-0): 0.614 µM (active) | GI50 (ACHN): 1.43 µM (inactive) | GI50 (CAKI-1): 1.89 µM (inactive) | GI50 (DU-145): 1.65 µM (inactive) | GI50 (HOP-92): 1.34 µM (inactive) | GI50 (Hs-578T): 1.27 µM (inactive) | GI50 (IGROV-1): 0.435 µM (active) | GI50 (KM12): 1.12 µM (inactive) | GI50 (MDA-MB-435): 1.45 µM (inactive) | GI50 (OVCAR-4): 1.22 µM (inactive) | GI50 (OVCAR-5): 1.7 µM (inactive) | GI50 (OVCAR-8): 1.47 µM (inactive) | GI50 (RPMI-8226): 0.243 µM (active) | GI50 (RXF 393): 1.16 µM (inactive) | GI50 (SF-539): 1.68 µM (inactive) | GI50 (SK-MEL-28): 1.65 µM (inactive) | GI50 (SK-OV-3): 1.89 µM (inactive) | GI50 (SNB-19): 1.67 µM (inactive) | GI50 (SR): 0.262 µM (active) | GI50 (T47D): 1.26 µM (inactive)

CSc1nnc(SCc2nn3c(=O)cc(C)nc3s2)s1
GI50 (786-0): > 100 µM (inactive) | GI50 (ACHN): > 100 µM (inactive) | GI50 (CAKI-1): > 100 µM (inactive) | GI50 (DU-145): > 100 µM (inactive) | GI50 (HOP-92): > 100 µM (inactive) | GI50 (Hs-578T): > 100 µM (inactive) | GI50 (IGROV-1): > 100 µM (inactive) | GI50 (KM12): > 100 µM (inactive) | GI50 (MDA-MB-435): > 100 µM (inactive) | GI50 (OVCAR-4): 24.4 µM (inactive) | GI50 (OVCAR-5): > 100 µM (inactive) | GI50 (OVCAR-8): > 100 µM (inactive) | GI50 (RPMI-8226): > 100 µM (inactive) | GI50 (RXF 393): 66.8 µM (inactive) | GI50 (SF-539): > 100 µM (inactive) | GI50 (SK-MEL-28): > 100 µM (inactive) | GI50 (SK-OV-3): > 100 µM (inactive) | GI50 (SNB-19): > 100 µM (inactive) | GI50 (SR): > 100 µM (inactive) | GI50 (T47D): > 100 µM (inactive)

COc1ccc(/C=C2/NC(=S)N=C2Cl)cc1
GI50 (786-0): > 100 µM (inactive) | GI50 (ACHN): > 100 µM (inactive) | GI50 (CAKI-1): > 100 µM (inactive) | GI50 (DU-145): > 100 µM (inactive) | GI50 (HOP-92): > 100 µM (inactive) | GI50 (Hs-578T): > 100 µM (inactive) | GI50 (IGROV-1): > 100 µM (inactive) | GI50 (KM12): 58.3 µM (inactive) | GI50 (MDA-MB-435): > 100 µM (inactive) | GI50 (OVCAR-4): > 100 µM (inactive) | GI50 (OVCAR-5): 21.5 µM (inactive) | GI50 (OVCAR-8): > 100 µM (inactive) | GI50 (RPMI-8226): > 100 µM (inactive) | GI50 (RXF 393): > 100 µM (inactive) | GI50 (SF-539): > 100 µM (inactive) | GI50 (SK-MEL-28): > 100 µM (inactive) | GI50 (SK-OV-3): > 100 µM (inactive) | GI50 (SNB-19): > 100 µM (inactive) | GI50 (SR): > 100 µM (inactive) | GI50 (T47D): > 100 µM (inactive)

Oc1cc(O)c2c(c1)O[C@H](c1cc(O)c(O)c(O)c1)[C@@H](O)C2 [GALLOCATECHIN]
GI50 (786-0): 18 µM (inactive) | GI50 (ACHN): 21.1 µM (inactive) | GI50 (CAKI-1): 43.7 µM (inactive) | GI50 (DU-145): > 100 µM (inactive) | GI50 (HOP-92): > 10 µM (inactive) | GI50 (Hs-578T): 46.6 µM (inactive) | GI50 (IGROV-1): 18.8 µM (inactive) | GI50 (MDA-MB-435): 18.5 µM (inactive) | GI50 (OVCAR-4): 22.4 µM (inactive) | GI50 (OVCAR-5): 18.8 µM (inactive) | GI50 (OVCAR-8): 16.2 µM (inactive) | GI50 (RPMI-8226): 20.7 µM (inactive) | GI50 (RXF 393): 17 µM (inactive) | GI50 (SF-539): 18 µM (inactive) | GI50 (SK-MEL-28): 43.3 µM (inactive) | GI50 (SK-OV-3): 28.1 µM (inactive) | GI50 (SNB-19): > 100 µM (inactive) | GI50 (SR): 19.6 µM (inactive) | GI50 (T47D): 28.9 µM (inactive)

Source: ChEMBL document CHEMBL1201862, “PubChem BioAssay data set” (2004)
